Consider eight compounds from ChEMBL document CHEMBL1130009 (J Med Chem, 1997).

Molecules are shown by their SMILES.

Test [1] addresses D(3) dopamine receptor (Homo sapiens, UniProt P35462). In words: Binding affinity on human Dopamine receptor D3 expressed in CHO cells using radioligand [3H]-YM 09151. It counts as cell-based.
Test [2] has as its target T1, D(4) dopamine receptor (Homo sapiens, UniProt P21917).
T1 sequence (P21917 whole entry): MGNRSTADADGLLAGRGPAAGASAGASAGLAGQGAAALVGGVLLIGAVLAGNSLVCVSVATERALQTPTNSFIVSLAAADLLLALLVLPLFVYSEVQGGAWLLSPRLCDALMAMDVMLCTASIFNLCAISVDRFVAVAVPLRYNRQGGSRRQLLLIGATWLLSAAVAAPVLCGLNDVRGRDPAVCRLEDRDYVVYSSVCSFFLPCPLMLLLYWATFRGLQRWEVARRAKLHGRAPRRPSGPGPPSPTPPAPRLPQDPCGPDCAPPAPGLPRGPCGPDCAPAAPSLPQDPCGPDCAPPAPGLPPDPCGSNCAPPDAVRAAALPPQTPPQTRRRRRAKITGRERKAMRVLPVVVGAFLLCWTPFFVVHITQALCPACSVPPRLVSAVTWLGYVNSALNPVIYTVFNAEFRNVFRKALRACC
In words: Binding affinity on human Dopamine receptor D4 expressed in CHO cells using radioligand [3H]-YM 09151. Format: cell-based.

Test [3] addresses T2, 5-hydroxytryptamine receptor 1A (Homo sapiens, UniProt P08908).
T2 sequence (P08908 whole entry): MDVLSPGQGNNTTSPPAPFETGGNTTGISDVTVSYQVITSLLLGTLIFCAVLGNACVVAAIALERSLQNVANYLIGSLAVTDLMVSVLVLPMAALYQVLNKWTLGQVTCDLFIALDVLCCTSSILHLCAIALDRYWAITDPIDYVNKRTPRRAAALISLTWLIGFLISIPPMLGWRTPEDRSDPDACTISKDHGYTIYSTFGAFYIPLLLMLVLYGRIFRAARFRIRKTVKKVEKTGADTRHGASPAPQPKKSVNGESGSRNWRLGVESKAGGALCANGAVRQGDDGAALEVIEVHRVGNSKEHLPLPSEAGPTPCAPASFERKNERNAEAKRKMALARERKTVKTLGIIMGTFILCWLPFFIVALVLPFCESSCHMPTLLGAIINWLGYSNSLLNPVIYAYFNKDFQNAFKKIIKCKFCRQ
In words: Binding affinity against 5-hydroxytryptamine 1A receptor.

D(3) dopamine receptor, sequence (P35462 whole entry): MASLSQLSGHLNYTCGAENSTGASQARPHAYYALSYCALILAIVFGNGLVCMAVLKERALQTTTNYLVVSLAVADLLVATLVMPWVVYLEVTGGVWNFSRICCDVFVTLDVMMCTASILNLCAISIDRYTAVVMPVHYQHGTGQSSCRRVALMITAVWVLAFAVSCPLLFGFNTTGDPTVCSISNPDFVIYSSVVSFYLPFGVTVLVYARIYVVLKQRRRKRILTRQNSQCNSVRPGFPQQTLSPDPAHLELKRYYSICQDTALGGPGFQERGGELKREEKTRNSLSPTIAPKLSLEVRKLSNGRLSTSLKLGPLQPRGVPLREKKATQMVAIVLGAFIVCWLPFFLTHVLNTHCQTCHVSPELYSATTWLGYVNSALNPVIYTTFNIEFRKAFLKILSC

As to `c1ccc(-c2nc(CN3CCN(c4ccncn4)CC3)c[nH]2)cc1`, the figures for the Ki in test [1] and in test [2] were greater than 8000 nM and 1400 nM, respectively.

Turning to `c1ccc(-c2ncc(CN3CCN(c4ncccn4)CC3)[nH]2)cc1`, the Ki in test [3] is 181 nM; in test [1], greater than 8000 nM; in test [2] it was 3.8 nM.

`c1ccc(-c2nc(CN3CCN(c4ccccc4)CC3)c[nH]2)cc1`: the Ki stood at 193 nM in test [1] and 5.2 nM in test [2].

With `c1ccc(-c2ncc(CN3CCN(c4ccncc4)CC3)[nH]2)cc1`, the Ki was greater than 8000 nM in test [1] and greater than 7300 nM in test [2].

In the case of `c1ccc(-c2nc(CN3CCN(c4cccnc4)CC3)c[nH]2)cc1`, affinity in test [2] was put at a Ki of 73 nM.

For the compound `Cc1nc(-c2ccccc2)[nH]c1CN1CCN(c2ncccn2)CC1`, the Ki in test [1] is 2980 nM; in test [2], 6 nM.

Take `c1ccc(-c2nc(CN3CCN(c4cnccn4)CC3)c[nH]2)cc1`: the Ki in test [1] was greater than 6660 nM; in test [2], 50 nM.

`c1ccc(-c2ncc(CN3CCN(c4ccccn4)CC3)[nH]2)cc1`: the Ki came to 1530 nM in test [1] and 8.5 nM in test [2].
